Experimental data as given in the NIST ThermoML archive (doi:10.1016/j.jct.2016.10.023).

Assay: xn = mol fraction of the nth substance listed
Details: Liquid, Constant-volume piezometry

CCCCC [pentane] + CCCO
Details	mass density [kg/m3]
305.05 K, x1 = 0.8	631.08
312.65 K, x1 = 0.8	623.57
317.85 K, x1 = 0.5	663.63
324.25 K, x1 = 0.8	611.04
334.25 K, x1 = 0.8	601.01
351.05 K, x1 = 0.5	631.49
353.55 K, x1 = 0.8	575.9
368.45 K, x1 = 0.5	611.87
372.15 K, x1 = 0.8	553.38
381.85 K, x1 = 0.2	663.76
383.55 K, x1 = 0.5	592.03

Details	mass density [kg/m3]
308.15 K, 2402 kPa, x1 = 0.8	630.94
313.15 K, 157 kPa, x1 = 0.8	623.55
313.15 K, 6022 kPa, x1 = 0.8	630.7
314.15 K, 765 kPa, x1 = 0.8	623.51
318.15 K, 3615 kPa, x1 = 0.8	623.33
323.15 K, 3447 kPa, x1 = 0.5	663.38
323.15 K, 7107 kPa, x1 = 0.8	623.1
323.15 K, 13373 kPa, x1 = 0.8	630.24
325.15 K, 801 kPa, x1 = 0.8	611.01
333.15 K, 5935 kPa, x1 = 0.8	610.66
333.15 K, 9686 kPa, x1 = 0.5	662.92
333.15 K, 14195 kPa, x1 = 0.8	622.65
333.15 K, 20785 kPa, x1 = 0.8	629.77
335.15 K, 769 kPa, x1 = 0.8	600.98
338.15 K, 2550 kPa, x1 = 0.8	600.85
343.15 K, 5592 kPa, x1 = 0.8	600.65
343.15 K, 12414 kPa, x1 = 0.8	610.23
343.15 K, 16000 kPa, x1 = 0.5	662.46
343.15 K, 21183 kPa, x1 = 0.8	622.2
343.15 K, 28234 kPa, x1 = 0.8	629.31
351.15 K, 441 kPa, x1 = 0.5	631.49
353.15 K, 1647 kPa, x1 = 0.5	631.4
353.15 K, 11601 kPa, x1 = 0.8	600.23
353.15 K, 18747 kPa, x1 = 0.8	609.8
353.15 K, 22340 kPa, x1 = 0.5	661.99
353.15 K, 28151 kPa, x1 = 0.8	621.75
353.15 K, 35636 kPa, x1 = 0.8	628.84
355.15 K, 1219 kPa, x1 = 0.8	575.84
358.15 K, 2713 kPa, x1 = 0.8	575.73
363.15 K, 5237 kPa, x1 = 0.8	575.54
363.15 K, 7726 kPa, x1 = 0.5	630.97
363.15 K, 17738 kPa, x1 = 0.8	599.81
363.15 K, 25314 kPa, x1 = 0.8	609.37
363.15 K, 28606 kPa, x1 = 0.5	661.53
363.15 K, 35183 kPa, x1 = 0.8	621.29
363.15 K, 42979 kPa, x1 = 0.8	628.38
372.65 K, 854 kPa, x1 = 0.8	553.36
373.15 K, 1058 kPa, x1 = 0.8	553.35
373.15 K, 3137 kPa, x1 = 0.5	611.68
373.15 K, 10414 kPa, x1 = 0.8	575.16
373.15 K, 13490 kPa, x1 = 0.5	630.54
373.15 K, 23787 kPa, x1 = 0.8	599.4
373.15 K, 31687 kPa, x1 = 0.8	608.94
373.15 K, 34882 kPa, x1 = 0.5	661.07
373.15 K, 42247 kPa, x1 = 0.8	620.84
378.15 K, 5874 kPa, x1 = 0.5	611.47
383.15 K, 1487 kPa, x1 = 0.2	663.69
383.15 K, 4567 kPa, x1 = 0.5	602.79
383.15 K, 5590 kPa, x1 = 0.8	552.99
383.15 K, 8687 kPa, x1 = 0.5	611.26
383.15 K, 15678 kPa, x1 = 0.8	574.78
383.15 K, 19194 kPa, x1 = 0.5	630.11
383.15 K, 29885 kPa, x1 = 0.8	598.99
383.15 K, 38107 kPa, x1 = 0.8	608.51
384.15 K, 1047 kPa, x1 = 0.5	592.01
393.15 K, 941 kPa, x1 = 0.5	579.06
393.15 K, 5707 kPa, x1 = 0.5	591.66
393.15 K, 8491 kPa, x1 = 0.2	663.21
393.15 K, 10012 kPa, x1 = 0.5	602.39
393.15 K, 10151 kPa, x1 = 0.8	552.64
393.15 K, 14096 kPa, x1 = 0.5	610.86
393.15 K, 20747 kPa, x1 = 0.8	574.4
